US5219884A, “Immunosuppressant” (Taito Co., Ltd., priority 1990, dated 1993)
Read-outs that look alike come from different tables or passages of the source.

Experiments:
Assay type in all cases: cell-based
[1] = system: alloreactive cytotoxic T cells (EL4 target cells); experiment: suppression of induction of alloreactive cytotoxic T cells in mouse allogenic MLC (51Cr release)
Experimental: The spleen cells suspension, 0.5 ml, (2×10^7 cells/ml) of BALB/c mouse (H-2^d) prepared in the same way as in Experimental Example 1, 0.5 ml of a suspension of mitomycin C-treated C57BL/6 mouse (H-2^b) spleen cells (2×10^7 cell/ml) and 1.0 ml of the test substance were added to 24-well multidishes, and cultured at 37° C. in an atmosphere of 5% carbon dioxide for 6 days.
After termination of the culture, the cells were harvested by centrifugation, and the concentration of the cell suspension was adjusted to 5×10^6 -6.25×10^5 cells/ml by using the RPMI1640 culture medium supplemented with 10% FCS, and used as the effector cell suspension.
The target cells used were leukemia cells EL4 from the syngenic (H-2^b) C57BL/b mouse as used for preparation of the stimulator cells. By incubating 10^6 EL4 cells in the presence of 100 μCi of Na2^51 CrO4 (1 mCi/ml) at 37° C. for 1 hour to incorporate ^51 Cr into the cytoplasm. The cell were washed, adjusted to the concentration of 10^4 cells/ml and used as the target cell suspension.
For the assay of the cytotoxic activity, 0.1 ml of the effector cell suspension and 0.1 ml of the target cell suspension were added to 96-well flat-bottomed plates, and cultured at 37° C. for 4 hours. The amount of ^51 Cr released into the supernatant was determined and the cytotoxic activity was calculated by the following formula. [formula]

[2] = system: mouse spleen cells stimulated with phytohemagglutinin (PHA); experiment: suppression of blastogenic response of mouse spleen cells by PHA; conditions: PHA (1/100); for inhibition at 0.01 µg/mL / inhibition at 0.1 µg/mL / inhibition at 1 µg/mL: Mus musculus, 76 h
Experimental: (§1) The effect on the mouse blastogenic response of mouse spleen cells stimulated with phytohemagglutinin (PHA) or with pokeweed mitogen (PWM) was examined as follows:
(§2) The spleen was resected from 5- to 8-week-old male […] BALB/c mice, and single cell suspension of spleen cells was prepared by using the RPMI1640 culture medium supplemented with 5% FCS. After hemolytic treatment, the concentration of the suspension was adjusted to 5×10^6 cells/ml by using the RPMI1640 culture medium supplemented with 10^-4 M 2-mercaptoethanol and 20% FCS, to which PHA or PWM was added. One hundred μl of the cell suspension was added to each well of 96-well microculture plates to which 100 μl per well of the test solution had been added (5×10^5 mouse spleen cells per well). After culturing at 37° C. in an atmosphere of 5% carbon dioxide for 72 hours, 0.5 μCi/well of ^3 H-thymidine was added and cultured under the same conditions for further 4 hours. After termination of the culture, the cells were harvested by a cell harvester, and the radioactivity incorporated into the cells was measured by a liquid scintillation counter, which was used as the index of blastogenic response of mouse spleen cells.

[3] = system: mouse spleen cells stimulated with pokeweed mitogen (PWM); experiment: suppression of blastogenic response of mouse spleen cells by PWM; conditions: for inhibition at 0.1 µg/mL / inhibition at 0.01 µg/mL / inhibition at 1 µg/mL: Mus musculus, 76 h; for inhibition at 0.1 µg/mL: read-out: Suppression
Experimental: as §1, §2

[4] = system: IL2 production in mouse allogenic MLC; experiment: suppression of IL2 production in mouse allogenic MLC; conditions: for inhibition at 0.01 µg/mL / inhibition at 0.1 µg/mL / inhibition at 1 µg/mL / inhibition at 10 µg/mL: Mus musculus, 48 h, read-out: Suppression
Experimental: Mouse allogenic MLC was carried out as follows:
The respondor cell suspension and the stimulator cell suspension (0.5 ml each) prepared in the same way as in Experimental Example 1 together with 1 ml of test substance were added to 24-well multidishes, and cultured at 37° C. in an atmosphere of 5% carbon dioxide for 2 days. After termination of the culture, the supernatant was collected and used as the supernatant of mouse allogenic MLC.
The IL2 activity in the supernatants of mouse allogenic MLC and the supernatants of PHA-stimulated mouse spleen cells culture was assayed as follows: IL2-dependent mouse cell line CTLL-2 cells were suspended in the RPMI1640 culture medium supplemented with 30% FCS to the concentration of 10^5 cells/ml, and 100 μl of the suspension was added to each well of 96-well microculture plates in which 100 μl of the supernatant of the MLC described above had been placed. After culturing at 37° C. in an atmosphere of 5% carbon dioxide for 20 hours, 0.5 μCi/well of ^3 H-thymidine was added, and incubated for 4 hours under the same conditions. After termination of the culture, the cells were harvested by a cell harvester, and the radioactivity incorporated into the cells was measured by a liquid scintillation counter. IL2 activity was expressed in U/ml as the titer at various concentrations at which the ^3 H-thymidine incorporation was 50% of the maximum.

[5] = system: IL3 production in mouse allogenic MLC; experiment: suppression of IL3 production in mouse allogenic MLC; conditions: for inhibition at 0.01 µg/mL / inhibition at 0.1 µg/mL / inhibition at 1 µg/mL / inhibition at 10 µg/mL: Mus musculus, read-out: Suppression
Experimental: (§3) The supernatant of mouse allogenic MLC and the supernatant of PHA-stimulated mouse spleen cells culture were prepared in the same manner as in Experimental Example 6.
(§4) The IL3 activity in the supernatant described above was assayed as follows: IL3-dependent mouse cell line FDC-P2 cells were suspended in the RPMI1640 culture medium supplemented with 10% FCS to the concentration of 10^5 cells/ml, and 100 μl of the suspension was added to each well of 96-well microculture plates in which 100 μl per well of the two-fold serial dilutions of the supernatant described above had been placed. After culturing at 37° C. in an atmosphere of 5% carbon dioxide for 20 hours, 0.5 μCi/well of ^3 H-thymidine was added, and cultured for further 4 hours under the same conditions. After termination of the culture, the cells were harvested by a cell harvester, and the radioactivity incorporated into the cells was measured by a liquid scintillation counter. The IL3 activity was expressed in U/ml as the titer at the concentrations at which the amount of ^3 H-thymidine incorporated was 50% of the maximum.

[6] = system: IL3 production in PHA-stimulated mouse spleen cells; experiment: suppression of IL3 production in PHA-stimulated mouse spleen cells; conditions: for inhibition at 0.01 µg/mL / inhibition at 0.1 µg/mL / inhibition at 1 µg/mL / inhibition at 10 µg/mL: Mus musculus, read-out: Suppression
Experimental: as §3, §4

[7] = 0.1 μg/ml, effector:target 25:1
[8] = 0.1 μg/ml, effector:target 50:1
[9] = 0.1 μg/ml, effector:target 100:1

## CCCCCCC(=O)CCCCCC/C=C/CC(O)C(O)C(N)(CO)C(=O)O (stereo not drawn) [Example 1]
[1]; 0.01 μg/ml, effector:target 25:1
  Amount of 51Cr release: 816 cpm
[1]; 0.01 μg/ml, effector:target 50:1
  Amount of 51Cr release: 783 cpm
[1]; 0.01 μg/ml, effector:target 100:1
  Amount of 51Cr release: 808 cpm
[1]; [7]
  Amount of 51Cr release: 764 cpm
[1]; [8]
  Amount of 51Cr release: 773 cpm
[1]; [9]
  Amount of 51Cr release: 771 cpm
[2]; 0.01 μg/ml
  inhibition at 0.01 µg/mL: 71.9%
  3H-thymidine uptake: 3238 cpm
[2]; 0.1 μg/ml
  inhibition at 0.1 µg/mL: 66.8%
  3H-thymidine uptake: 3624 cpm
[2]; 1 μg/ml
  inhibition at 1 µg/mL: 92.4%
  3H-thymidine uptake: 1686 cpm
[3]
  inhibition at 0.1 µg/mL: 73.2%
[3]; PWM (1/100), 0.01 μg/ml
  inhibition at 0.01 µg/mL: 61%
  3H-thymidine uptake: 13499 cpm
[3]; PWM (1/100), 1 μg/ml
  inhibition at 1 µg/mL: 84.5%
  3H-thymidine uptake: 6529 cpm
[3]; PWM (1/100), 0.1 μg/ml
  3H-thymidine uptake: 9895 cpm
[4]; 0.01 μg/ml
  IL2 activity: 4.0 U/ml
[4]; 0.1 μg/ml
  IL2 activity: 2.0 U/ml
[4]; 1 μg/ml
  IL2 activity: 1.1 U/ml
[4]; 10 μg/ml
  IL2 activity: < 1 U/ml
[4]
  inhibition at 0.01 µg/mL: 59.2%
  inhibition at 0.1 µg/mL: 79.6%
  inhibition at 1 µg/mL: 88.8%
  inhibition at 10 µg/mL: > 90%
[5]; 0.01 μg/ml
  IL3 activity: 13.9 U/ml
[5]; 0.1 μg/ml
  IL3 activity: 12.1 U/ml
[5]; 1 μg/ml
  IL3 activity: 9.8 U/ml
[5]; 10 μg/ml
  IL3 activity: < 2 U/ml
[5]
  inhibition at 0.01 µg/mL: 62.2%
  inhibition at 0.1 µg/mL: 67.1%
  inhibition at 1 µg/mL: 73.4%
  inhibition at 10 µg/mL: > 95%
[6]; 0.01 μg/ml
  IL3 activity: 4.0 U/ml
[6]; 0.1 μg/ml
  IL3 activity: < 2 U/ml
[6]; 1 μg/ml
  IL3 activity: < 2 U/ml
[6]; 10 μg/ml
  IL3 activity: < 2 U/ml
[6]
  inhibition at 0.01 µg/mL: 76.6%
  inhibition at 0.1 µg/mL: > 90%
  inhibition at 1 µg/mL: > 90%
  inhibition at 10 µg/mL: > 90%

## CCCCCCC(=O)CCCCCC/C=C/CC1OC(=O)C(N)(CO)C1O (stereo not drawn) [Example 4]
[1]; [7]
  Amount of 51Cr release: 767 cpm
  Cytotoxic activity: 0%
[1]; [8]
  Amount of 51Cr release: 780 cpm
  Cytotoxic activity: 0%
[1]; [9]
  Amount of 51Cr release: 761 cpm
  Cytotoxic activity: 0%
[2]; 0.01 μg/ml
  inhibition at 0.01 µg/mL: 34.5%
  3H-thymidine uptake: 6074 cpm
[2]; 0.1 μg/ml
  inhibition at 0.1 µg/mL: 57.8%
  3H-thymidine uptake: 4312 cpm
[2]; 1 μg/ml
  inhibition at 1 µg/mL: 71%
  3H-thymidine uptake: 3308 cpm
[3]; PWM (1/100), 0.01 μg/ml
  inhibition at 0.01 µg/mL: 41.4%
  3H-thymidine uptake: 19335 cpm
[3]; PWM (1/100), 0.1 μg/ml
  inhibition at 0.1 µg/mL: 75.1%
  3H-thymidine uptake: 9325 cpm
[3]; PWM (1/100), 1 μg/ml
  inhibition at 1 µg/mL: 77.1%
  3H-thymidine uptake: 8712 cpm
[4]; 0.01 μg/ml
  IL2 activity: 4.0 U/ml
  inhibition at 0.01 µg/mL: 59.2%
[4]; 0.1 μg/ml
  IL2 activity: 1.7 U/ml
  inhibition at 0.1 µg/mL: 82.7%
[4]; 1 μg/ml
  IL2 activity: < 1 U/ml
  inhibition at 1 µg/mL: > 90%
[4]; 10 μg/ml
  IL2 activity: < 1 U/ml
  inhibition at 10 µg/mL: > 90%
[5]; 0.01 μg/ml
  IL3 activity: 26.0 U/ml
[5]; 0.1 μg/ml
  IL3 activity: 16.0 U/ml
  inhibition at 0.1 µg/mL: 56.5%
[5]; 1 μg/ml
  IL3 activity: 8.6 U/ml
  inhibition at 1 µg/mL: 76.6%
[5]; 10 μg/ml
  IL3 activity: 6.1 U/ml
  inhibition at 10 µg/mL: 83.4%
[5]
  inhibition at 0.01 µg/mL: 29.3%
[6]; 0.01 μg/ml
  IL3 activity: 9.1 U/ml
  inhibition at 0.01 µg/mL: 46.8%
[6]; 0.1 μg/ml
  IL3 activity: 2.8 U/ml
  inhibition at 0.1 µg/mL: 83.6%
[6]; 1 μg/ml
  IL3 activity: 2.3 U/ml
  inhibition at 1 µg/mL: 86.5%
[6]; 10 μg/ml
  IL3 activity: < 2 U/ml
  inhibition at 10 µg/mL: > 90%
